# Results as given in EP0552417B1, “Cyclic peptides and use thereof” (priority 1991, dated 1993).
# Non-standard residues stand in square brackets, D forms with d. Residues, ends and D or L forms follow the SMILES beside them. *: point of attachment. NMeW = CN[C@@H](Cc1c[nH]c2ccccc12)C(=O)O; NMeL = CN[C@@H](CC(C)C)C(=O)O; Bn = c1ccc(C*)cc1
# What was measured:
# ETB = ETB radio receptor assay *2, 125I-endothelin-1, guinea pig kidney crude membrane fraction; format: binding, Guinea pigs; details: relative activity, 37 °C, 90 minutes
# Protocol: ETB Radio Receptor Assay *2
# In the endothelin radio receptor assay, guinea pigs' kidneys were used. Guinea pigs (Std Hartrey, male 250 g, Japan SLC Ltd.) were made to have a cerebral concussion and sacrificed by bleeding from carotid arteries to pick up the kidneys and removed fat therefrom to prepare the kidneys. The obtained kidneys were sliced and homogenized by politron homogenizer in 20 ml of 50 mM Tris-HCl buffer [pH 7.4; 20 mM NaHCO3, 0.1 mM PMSF (Phenylmethylsulfonyl Fluoride), 1 mM EDTA (Ethylenediaminetetraacetic acid)] per one kidney. The homogenized kidney was applied to a centrifugation at 1,000 x g for 15 minutes and the supernatant was further applied to a centrifugation for 20 minutes at 30,000 x g. The resulting precipitate was twice washed with 50 mM Tris-HCl buffer (pH 7.4) containing 0.1 mM PMSF, 1 mM EDTA. The resultant was stored at -80 °C as a crude receptor membrane fraction and was used as the suspension in the following buffer when necessary.
# 740 Bq of ^125I-endothelin-1 (81.4 TBq/mmol, Du Pont, USA) as a radio ligand, the crude membrane fraction (2.1 µg protein) and samples were added to the following buffer. The reaction was performed at 37 °C, for 90 minutes in 0.2 ml of the buffer [50 mM Tris-HCl buffer (pH 7.4) containing 0.1 mM PMSF, 1 mM EDTA, 0.2% bovine serum albumin].
# The reaction was stopped by fast filtration on a glass filter (GF/B, Wattman, USA) by Cell Harvestor (290 PHD, Cambridge-Technology, Great Britain), and the filter was three times washed with 50 mM Tris-HCl buffer (pH 7.4). Radio activity remained on the filter was assayed by a gamma counter.
# [1] = target: T1, endothelin receptor A (ETA) (Sus scrofa, UniProt Q29010); test: Assay of affinity for receptor (1): binding activity on ETA receptor, 125I-labeled endothelin-1, porcine heart membrane fraction; parameters: key: relative specific activity; reference cyclic pentapeptide ETA binding = 1.0; details: specific activity, taking the binding activity of control cyclo[-D-Glu-Ala-D-aIle-Leu-D-Trp-] on receptor A as 1.0, 25°C, 1 hour
# T1 construct: A membrane fraction prepared from the porcine heart; from tissue; host or cells: porcine heart membrane fraction
# T1 sequence (Q29010 21-427): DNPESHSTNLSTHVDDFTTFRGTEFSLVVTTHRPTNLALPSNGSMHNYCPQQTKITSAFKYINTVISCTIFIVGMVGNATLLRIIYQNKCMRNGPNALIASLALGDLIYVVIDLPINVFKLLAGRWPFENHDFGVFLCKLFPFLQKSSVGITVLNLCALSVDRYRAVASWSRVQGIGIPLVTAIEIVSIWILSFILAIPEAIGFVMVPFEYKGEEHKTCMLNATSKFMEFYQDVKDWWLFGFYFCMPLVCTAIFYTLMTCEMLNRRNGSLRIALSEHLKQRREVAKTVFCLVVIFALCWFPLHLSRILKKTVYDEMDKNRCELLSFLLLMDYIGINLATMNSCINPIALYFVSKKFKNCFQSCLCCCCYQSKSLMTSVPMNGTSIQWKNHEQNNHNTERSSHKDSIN
# Protocol: Assay of Affinity for Receptor (1) ... Binding Activity on ETA Receptor
# A membrane fraction prepared from the porcine heart was diluted to 0.15 mg/ml by using a buffer solution for assay, and 100 µl of the resulting suspension of the membrane fraction was poured into each assay tube to use for assay. To this suspension of the membrane fraction was added 2 µl of 5 nM ^125I-labeled endothelin-1 solution. Further, 3 µl of a test peptide solution was added thereto, followed by incubation at a temperature of 25°C for 1 hour. Then, the resulting suspension was diluted with 900 µl of the buffer solution for assay cooled with ice, and thereafter separated into a supernatant and a precipitate by centrifugation at 12,000 X g for 10 minutes. Cell membranes and an endothelin receptor A (ETA) embedded therein were contained in the precipitate, and radioactive iodine-labeled endothelin combined with the receptor was also recovered in the precipitate. Accordingly, the amount of radioactive iodine-labeled endothelin combined with the endothelin receptor A (ETA) was determined by measuring the amount of radioactive iodine contained in the precipitate with a gamma-ray counter. The cyclic pentapeptide described in Japanese Patent Application No. 2-413328/1990, cyclo[-D-Glu-Ala-D-aIle-Leu-D-Trp-], was used as a control compound. The numerical value of ETA shown in Table 1 is the value of specific activity, taking the binding activity of this cyclic pentapeptide on the receptor A as 1.0. The binding activity (IC50) of this cyclic pentapeptide on the ETA receptor is 2x10^-6 M.
Binding Activity on ET Receptor (R. act.) ETB*2 (ETB),Binding Activity on ET Receptor (R. act.) ETA [1],Compound
17,6.8,"CC(C)C[C@@H]1NC(=O)[C@@H](CC(C)C)NC(=O)[C@H](CC(=O)O)NC(=O)[C@H](CC(C)C)N(C)C(=O)[C@@H](CC(=O)O)NC(=O)[C@@H](Cc2c[nH]c3ccccc23)NC1=O [Example 47, Cyclo[-D-Asp-N-MeLeu-Asp-D-Leu-Leu-D-Trp-]] (cyclo(D[dL]L[dW][dD][NMeL]))"
30,9.1,"CC(C)C[C@@H]1NC(=O)[C@@H](CC(C)C)NC(=O)[C@H](CC(=O)O)NC(=O)[C@H](Cc2c[nH]c3ccccc23)N(C)C(=O)[C@@H](CC(=O)O)NC(=O)[C@@H](Cc2c[nH]c3ccccc23)NC1=O [Example 67, Cyclo[-D-Asp-N-MeTrp-Asp-D-Leu-Leu-D-Trp-]] (cyclo(D[dL]L[dW][dD][NMeW]))"
13,14,"CC(C)C[C@@H]1NC(=O)[C@@H](CC(C)C)NC(=O)[C@H](CC(=O)O)NC(=O)[C@H](COCc2ccccc2)NC(=O)[C@@H](CC(=O)O)NC(=O)[C@@H](Cc2c[nH]c3ccccc23)NC1=O [Example 20, Cyclo[-D-Asp-Ser(Bzl)-Asp-D-Leu-Leu-D-Trp-]] (cyclo(D[dL]L[dW][dD]S(Bn)))"
4.8,5.7,"CC(C)C[C@@H]1NC(=O)[C@@H](CC(C)C)NC(=O)[C@H](C)NC(=O)[C@@H](CC(=O)O)NC(=O)[C@@H](CC(=O)O)NC(=O)[C@@H](Cc2c[nH]c3ccccc23)NC1=O [Example 27, Cyclo[-D-Asp-D-Asp-Ala-D-Leu-Leu-D-Trp-]] (cyclo(A[dL]L[dW][dD][dD]))"
43,15,"CC(C)C[C@@H]1NC(=O)[C@@H](CC(C)C)NC(=O)[C@H](CC(=O)O)NC(=O)[C@H](Cc2c[nH]cn2)NC(=O)[C@@H](CC(=O)O)NC(=O)[C@@H](Cc2c[nH]c3ccccc23)NC1=O [Example 83, Cyclo[-D-Asp-His-Asp-D-Leu-Leu-D-Trp-]] (cyclo(D[dL]L[dW][dD]H))"
7.1,8.3,"CC(C)C[C@@H]1NC(=O)[C@@H](CC(C)C)NC(=O)[C@H](CC(=O)O)NC(=O)[C@H](Cc2ccccc2)NC(=O)[C@@H](CC(=O)O)NC(=O)[C@@H](Cc2c[nH]c3ccccc23)NC1=O [Example 19, Cyclo[-D-Asp-Phe-Asp-D-Leu-Leu-D-Trp-]] (cyclo(D[dL]L[dW][dD]F))"
7.1,6.0,"CC(C)C[C@@H]1NC(=O)[C@@H](CC(C)C)NC(=O)[C@H](C)NC(=O)[C@H](CC(=O)O)NC(=O)[C@@H](CC(=O)O)NC(=O)[C@@H](Cc2c[nH]c3ccccc23)NC1=O [Example 6, cyclo[-D-Asp-Asp-Ala-D-Leu-Leu-D-Trp-]] (cyclo(A[dL]L[dW][dD]D))"
2.4,2.6,"CC(C)C[C@@H]1NC(=O)[C@@H](CC(C)C)NC(=O)[C@@H](C)NC(=O)[C@H](CC(=O)O)NC(=O)[C@@H](CC(=O)O)NC(=O)[C@@H](Cc2c[nH]c3ccccc23)NC1=O [Example 29, Cyclo[-D-Asp-Asp-D-Ala-D-Leu-Leu-D-Trp-]] (cyclo(D[dA][dL]L[dW][dD]))"
9.1,4.4,"CC(C)C[C@@H]1NC(=O)[C@@H](CC(C)C)NC(=O)[C@@H]2CCCN2C(=O)[C@H](CC(=O)O)NC(=O)[C@@H](CC(=O)O)NC(=O)[C@@H](Cc2c[nH]c3ccccc23)NC1=O [Example 30, Cyclo[-D-Asp-Asp-Pro-D-Leu-Leu-D-Trp-]] (cyclo(DP[dL]L[dW][dD]))"
1.0,2.6,"CC(C)C[C@@H]1NC(=O)[C@@H](CC(C)C)NC(=O)[C@H]2CCCN2C(=O)[C@H](CC(=O)O)NC(=O)[C@@H](CC(=O)O)NC(=O)[C@@H](Cc2c[nH]c3ccccc23)NC1=O [Example 31, Cyclo[-D-Asp-Asp-D-Pro-D-Leu-Leu-D-Trp-]] (cyclo(D[dP][dL]L[dW][dD]))"
